Laboratory results taken from US6527981B1, “Azole/amine oxide preservatives” (Lonza Inc., priority 1999, dated 2003).
≈ marks a conversion by molar mass, not a printed value. Read-outs that look alike come from different tables or passages of the source.

How the values were obtained:
[1] = system: G. trabeum (brown rot fungi); test: agar dilution plate method, wood rot fungi (MIC, IC50, percent retardation); assay type: cell-based; settings: for MIC: Gloeophyllum trabeum
[2] = system: T. versicolor (white rot fungi); test: as above; assay type: cell-based; settings: for MIC: Trametes versicolor
[3] = system: C. globosum (soft rot decay fungi); test: as above; assay type: cell-based; settings: for MIC: Chaetomium globosum
[4] = system: P. placenta (brown rot fungi); test: as above; assay type: cell-based
[5] = 20° C.; Material Safety Data Sheet; cited from earlier work
[6] = amine oxide alone, 100% growth retardation
[7] = amine oxide alone, 100% growth retardation, read-out: MIC (ppm of amine oxides) G. trabeum
[8] = amine oxide alone, 100% growth retardation, read-out: MIC (ppm of amine oxides) T. versicolor
[9] = amine oxide alone, 100% growth retardation, read-out: MIC (ppm of amine oxides) C. globosum
[10] = amine oxide alone, 100% growth retardation, read-out: MIC (ppm of amine oxides) P. placenta
[11] = azole alone, read-out: G. trabeum MIC
[12] = azole alone, Table2D curve fitting
[13] = azole alone, read-out: T. versicolor MIC
[14] = azole alone, read-out: C. globosum MIC
[15] = azole alone, read-out: P. placenta MIC
[16] = ppm of amine oxide or didecyldimethyl ammonium chloride, Table2D curve fitting

Row | Compound | MIC (ppm of amine oxides) G. trabeum [1, 6] [ppm] | MIC (ppm of amine oxides) T. versicolor [2, 6] [ppm] | MIC (ppm of amine oxides) C. globosum [3, 6] [ppm] | MIC (ppm of amine oxides) P. placenta [4, 6] [ppm] | MIC [1, 7] [µg/mL] | Qa, concentration of amine oxide alone required to yield 100% retardation, G. trabeum ([1]; amine oxide alone) [ppm] | MIC [2, 8] [µg/mL] | Qa, concentration of amine oxide alone required to yield 100% retardation, T. versicolor ([2]; amine oxide alone) [ppm] | MIC [3, 9] [µg/mL] | Qa, concentration of amine oxide alone required to yield 100% retardation, P. placenta ([4]; amine oxide alone) [ppm] | MIC [4, 10] [µg/mL] | other results
1 | tallow-alkyl-di(hydroxyethyl)amine oxide [Tallow-di(hydroxyethyl)-amine oxide] | >1000 | >1000 | >1000 | >1000 | – | – | – | – | – | – | – | –
2 | CCCCCCCCCCCCCC[N+](C)(C)[O-] [Tetradecyl-DMAO, tetradecyl dimethylamine oxide] | – | – | – | – | > 1000 | 1000 | > 1000 | 1000 | > 1000 | 1000 | > 1000 | –
3 | CCCCCCCCCCCC[N+](C)([O-])Cc1ccccc1 (centres unmarked) [Dodecyl-BMAO] | 1000 | >1000 | >1000 | >1000 | – | – | – | – | – | – | – | –
4 | CC(C1CC1)C(O)(Cn1cncn1)c1ccc(Cl)cc1 (centres unmarked) [Cyproconazole, cyproconazole] | – | – | – | – | – | – | – | – | – | – | – | MIC [1, 11]: 2.5 µg/mL (≈ 8.57 µM); G. trabeum IC50 [1, 12]: 0.3 ppm; MIC [2, 13]: 2.5 µg/mL (≈ 8.57 µM); T. versicolor IC50 [2, 12]: 0.2 ppm; MIC [3, 14]: 25 µg/mL (≈ 85.7 µM); C. globosum IC50 [3, 12]: 2.3 ppm; P. placenta IC50 [4, 12]: 0.7 ppm; MIC [4, 15]: 2.5 µg/mL (≈ 8.57 µM)
5 | CCCCCCCCCC[N+](C)(C)CCCCCCCCCC.[Cl-] [Bardac ® 2280, didecyldimethyl ammonium chloride] | – | – | – | – | – | – | – | – | – | – | – | MIC ([1]; Table 8, ppm of amine oxide or didecyldimethyl ammonium chloride, read-out: MIC G. trabeum): > 1000 µg/mL; IC50 G. trabeum [1, 16]: 8 ppm; MIC ([2]; Table 8, ppm of amine oxide or didecyldimethyl ammonium chloride, read-out: MIC T. versicolor): > 1000 µg/mL; IC50 T. versicolor [2, 16]: 28 ppm; MIC ([3]; read-out: MIC C. globosum): > 1000 µg/mL; IC50 C. globosum [3, 16]: 28 ppm; MIC ([4]; Table 8, ppm of amine oxide or didecyldimethyl ammonium chloride, read-out: MIC P. placenta): 1000 µg/mL; IC50 P. placenta [4, 16]: <5 ppm
6 | coco-alkyl-di(hydroxyethyl)amine oxide [Coco-di(hydroxyethyl)-amine oxide] | 500 | 500 | >1000 | 500 | – | – | – | – | – | – | – | –
7 | CC(C)(C)C(O)(CCc1ccc(Cl)cc1)Cn1cncn1 (centres unmarked) [Tebuconazole, tebuconazole] | – | – | – | – | – | – | – | – | – | – | – | MIC [1, 11]: 10 µg/mL (≈ 32.5 µM); Qb, concentration of azole alone required to yield 100% retardation, G. trabeum ([1]; azole alone): 10 ppm; G. trabeum IC50 [1, 12]: <0.1 ppm; MIC [2, 13]: 25 µg/mL (≈ 81.2 µM); Qb, concentration of azole alone required to yield 100% retardation, T. versicolor ([2]; azole alone): 25 ppm; T. versicolor IC50 [2, 12]: 2.3 ppm; Solubility in Water^b [5]: 32 ppm at 20 °C; MIC [3, 14]: 50 to 500 µg/mL (≈ 162 to 1620 µM); C. globosum IC50 [3, 12]: 34.5 ppm; Qb, concentration of azole alone required to yield 100% retardation, P. placenta ([4]; azole alone): 50 ppm; P. placenta IC50 [4, 12]: 1.7 ppm; MIC [4, 15]: 50 µg/mL (≈ 162 µM)
8 | CCCCCCCCCCCCCCCCCC[N+](C)(C)[O-] [Octadecyl-DMAO, octadecyl dimethylamine oxide] | – | – | – | – | > 1000 | 1000 | > 1000 | 1000 | > 1000 | 1000 | > 1000 | –
9 | CCCCCCCCCCCCCCCC[N+](C)(C)[O-] [Hexadecyl-DMAO, hexadecyl dimethylamine oxide] | – | – | – | – | > 1000 | 1000 | > 1000 | 1000 | > 1000 | 1000 | > 1000 | –
10 | CCCCCCCCCCCC[N+](C)(C)[O-] [Dodecyl-DMAO, dodecyldimethylamine oxide] | – | – | – | – | 250 (≈ 1090 µM) | 250 | 250 (≈ 1090 µM) | 250 | – | 250 | 250 (≈ 1090 µM) | MIC ([3]; read-out: MIC (ppm of amine oxides) C. globosum): > 1000 µg/mL
